In PMC10609143, “Inhibitory Mechanisms of Lekethromycin in Dog Liver Cytochrome P450 Enzymes Based on UPLC-MS/MS Cocktail Method” (Molecules, 2023):
Read-outs that look alike come from different tables or passages of the source.

Legend:
[1] = tested on: CYP2A6; assay: Enzyme kinetic study of probe substrate in dog liver microsomes; format: in vitro ADME
Protocol: (§4) The CYP450 enzymatic activities were characterized by their probe substrate reactions. […] NADPH was added to initiate the reaction after a 5 min preincubation period at 37 °C in a thermos shaker. Of note, the volume of the final organic solvent in the incubation system should be below <1% (v/v) [21]. All experiments were performed in triplicate.

[2] = tested on: CYP2A6; design: method as in PMID 11307970; conditions: dog liver microsomes, literature; cited from earlier work
[3] = tested on: CYP2D6; conditions: in vitro drug metabolism studies; cited from earlier work
[4] = tested on: CYP1A2; design: method as in PMID 12433797; conditions: in vitro drug metabolism studies; cited from earlier work
[5] = Enzyme kinetic study of probe substrate in dog liver microsomes; format: in vitro ADME; conditions: pH 7.4, probe testosterone (6β-hydroxylation), 15 min, 0.2 mg/mL, n = 3, read-out: Km (Michaelis–Menten constant)
Protocol: (§1) The CYP450 enzymatic activities were characterized by their probe substrate reactions. Incubation mixtures were prepared in a total volume of 200 μL, which consisted of PBS (pH = 7.4), NADPH, probe substrates, and various concentrations of tested compounds. NADPH was added to initiate the reaction after a 5 min preincubation period at 37 °C in a thermos shaker. Of note, the volume of the final organic solvent in the incubation system should be below <1% (v/v). All experiments were performed in triplicate.
(§2) The Vmax and Km were calculated using GraphPad Prism v.8.0.2 (GraphPad software Inc., San Diego, CA, USA) via the Michaelis–Menten kinetic model. In addition, incubation times of 0–60 min were examined for mixed probe substrates. Various DLM protein concentrations (0.05–1 mg/mL) in the incubation mixture were carried out.
(§3) Then, 400 μL of cool ACN containing the 20 μL internal standard was added to terminate the reaction. Samples were vortexed for 2 min and centrifuged at 14,000 rpm for 10 min (4 °C). Next, the supernatant was steamed under nitrogen (40 °C) until dry. Then, it was dissolved with 200 µL of ACN: H2O = 80:20 (v/v). Finally, after filtering with a 0.22 μm membrane, an aliquot of 5 µL was injected into the UPLC-MS/MS for analysis.

[6] = tested on: CYP3A4; assay: as above; format: in vitro ADME; conditions: testosterone 6β-hydroxylation, n = 3
Protocol: as §1, §2, §3

[7] = tested on: CYP3A4; conditions: dog liver microsomes, literature; cited from earlier work
[8] = tested on: CYP3A4; conditions: rat; cited from earlier work
[9] = tested on: CYP3A4; conditions: mini-pig; cited from earlier work
[10] = substrate: COc1ccc2c(c1)[C@]13CCCC[C@@H]1[C@H](C2)N(C)CC3; assay: cells, lysate or membranes named; conditions: other: dextromethorphan O-demethylation, dog liver microsomes, 15 min, 0.2 mg/mL, n = 3; pH 7.4
Protocol: as §4

[11] = substrate: CCOc1ccc(NC(C)=O)cc1; assay: cells, lysate or membranes named; conditions: other: phenacetin O-deethylation, dog liver microsomes, 15 min, 0.2 mg/mL, n = 3; pH 7.4
[12] = substrate: CC(NC(C)(C)C)C(=O)c1cccc(Cl)c1; assay: Enzyme kinetic study of probe substrate in dog liver microsomes; format: in vitro ADME; conditions: other: bupropion hydroxylation, 15 min, 0.2 mg/mL, n = 3, pH 7.4
Protocol: as §4

## O=c1ccc2ccccc2o1 [CAN, coumarin]
[1]; coumarin hydroxylation, n = 3
  Vmax (maximum rate of an enzyme-catalyzed reaction): 0.034 nmol/min/mg protein
[1]; pH 7.4, probe coumarin (hydroxylation), 15 min, 0.2 mg/mL, n = 3, read-out: Km (Michaelis–Menten constant)
  Km at 15 min: 0.41 µM
[2]
  Km: 2 to 4.3 µM
  Vmax: 1488–1656 pmol/min/mg/microsomal protein

## COc1ccc2c(c1)[C@]13CCCC[C@@H]1[C@H](C2)N(C)CC3 [DEX, dextromethorphan]
[3]
  Km: 2 to 10 µM

## CCOc1ccc(NC(C)=O)cc1 [PH, phenacetin]
[4]
  Km: 10 to 50 µM

## C[C@]12CC[C@H]3[C@@H](CCC4=CC(=O)CC[C@@]43C)[C@@H]1CC[C@@H]2O [TS, testosterone]
[5]
  Km at 15 min: 85.2 µM
[6]
  Vmax (maximum rate of an enzyme-catalyzed reaction): 1.49 nmol/min/mg protein
[7]
  Km: 192 µM
  Vmax: 68–180 pmol/min/mg/microsomal protein
[8]
  Km: 84 µM
[9]
  Km: 79 µM

B1: CYP2D6 (Canis lupus familiaris) (protein)
chain: MGLLTGDTLGPLAVAVAIFLLLVDLMHRRRRWATRYPPGPTPVPMVGNLLQMDFQEPICYFSQLQGRFGNVFSLELAWTPVVVLNGLEAVREALVHRSEDTADRPPMPIYDHLGLGPESQGLFLARYGRAWREQRRFSLSTLRNFGLGRKSLEQWVTEEASCLCAAFAEQAGRPFGPGALLNKAVSNVISSLTYGRRFEYDDPRLLQLLELTQQALKQDSGFLREALNSIPVLLHIPGLASKVFSAQKAIITLTNEMIQEHRKTRDPTQPPRHLIDAFVDEIEKAKGNPKTSFNEENLCMVTSDLFIAGMVSTSITLTWALLLMILHPDVQRRVQQEIDEVIGREQLPEMGDQTRMPFTVAVIHEVQRFGDIVPLGVPHMTSRDTEVQGFLIPKGTTLITNLSSVLKDEKVWKKPFRFYPEHFLDAQGHFVKHEAFMPFSAGRRVCLGEPLARMELFLFFTCLLQRFSFSVPAGQPRPSDHGVFTFLKVPAPFQLCVEPR
[10]
  Km: 6.33 µM
  Vmax: 0.00616 µmol/min/mg

B2: CYP1A2 (Canis lupus familiaris) (protein)
chain: MALSQMATGLLLASTIFCLILWVVKAWQPRLPKGLKSPPGPWGWPLLGNVLTLGKSPHLALSRLSQRYGDVLQIRIGSTPVLVLSGLDTIRQALVRQGDDFKGRPDLYSLSLITDSQSMSFSPDSGPVWAAGRRLAQNALNTFSIASDPASSCSCYLEEHVSKEAEALLSRLQEQMAEVGRFDPYNQVLLSVANVIGAMCFGHHFSQRSEEMLPLLMSSSDFVETVSSGNPLDFFPILQYMPNSALQRFKNFNQTFVQSLQKIVQEHYQDFDERSVQDITGALLKHNEKSSRASDGHIPQEKIVNLINDIFGAGFDTVTTAISWSLMYLVANPEIQRQIQKELDTVIGRARQPRLSDRPQLPLMEAFILEIFRHTSFVPFTIPHSTTKDTTLKGFYIPKECCVFINQWQVNHDQQVWGDPFAFRPERFLTADGTTINKTLSEKVMLFGMGKRRCIGEVLAKWEIFLFLAILLQRLEFSVPAGVKVDLTPIYGLTMKHTRCEHVQARPRFSIK
[11]
  Km: 5.39 µM
  Vmax: 0.00022 µmol/min/mg

B3: CYP2B6 (Canis lupus familiaris) (protein)
chain: MELSVLLLLALLTGLLLLMARGHPKAYGHLPPGPRPLPILGNFLQMDRKGLLKSFLRLQEKYGDVFTVYLGPRRTVMLCGIDAIREALVDNAEAFSGRGKIAVVEPVFQGYGVVFANGERWKTLRRFSLATMRDFGMGKRSVEERIQEEAQCLVEELRKTEGVLQDPTFFFHSMTANIICSIVFGKRFGYKDPEFLRLMNLFYVSFALISSFSSQMFELFHSFLKYFPGTHRQVYNNLQEIKAFIARMVEKHRETLDPSAPRDFIDAYLIRMDKEKAEPSSEFHHRNLIDTALSLFFAGTETTSTTLRYGFLLMLKYPHIAERIYKEIDQVIGPHRLPSLDDRAKMPYTDAVIHEIQRFGDLLPIGVPHMVTKDICFRGYIIPKGTEVFPILHSALNDPHYFEKPDVFNPDHFLDANGALKKNEAFIPFSIGKRICLGEGIARMELFLFFTTILQNFSVASPMAPEDIDLTPQEIGVGKLPPVYQISFLSRGGC
notes: from tissue; host or cells: dog liver microsomes (DLM)
[12]
  Km: 9.15 µM
  Vmax: 0.00143 µmol/min/mg
